Measured values reported in the supplement of paper PMC10307832.

Columns and labels:
Experiment in all cases: relative viability (nuclei count vs DMSO), 5 days (fraction); higher = more cells survive
NCI-H1666 = system: NCI-H1666
How it was run: (§1)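 Medians of duplicate plates are given as relative viability. That measure is the nuclei count in treated wells divided by the count in vehicle wells. Counts were taken on 4× images of lung cancer cell lines in 1536-well plates, 5 days after pin-tool dosing the day after seeding with one drug alone or a fixed anchor-drug dose plus five library-drug doses (not always all listed) in √10 steps.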

COR-L 105 = system: COR-L 105
How it was run: as §1

A-427 = system: A-427
How it was run: as §1

NCI-H358 = system: NCI-H358
How it was run: as §1

HOP-62 = system: HOP-62
How it was run: as §1

NCI-H460 = system: NCI-H460
How it was run: as §1

NCI-H2170 = system: NCI-H2170
How it was run: as §1

LC-2-ad = system: LC-2-ad
How it was run: as §1

HCC-366 = system: HCC-366
How it was run: as §1

SW 900 = system: SW 900
How it was run: as §1

NCI-H2009 = system: NCI-H2009
How it was run: as §1

HCC-78 = system: HCC-78
How it was run: as §1

SK-LU-1 = system: SK-LU-1
How it was run: as §1

NCI-H2085 = system: NCI-H2085
How it was run: as §1

UMC-11 = system: UMC-11
How it was run: as §1

NCI-H1793 = system: NCI-H1793
How it was run: as §1

EPLC-272H = system: EPLC-272H
How it was run: as §1

LU99A = system: LU99A
How it was run: as §1

LXF-289 = system: LXF-289
How it was run: as §1

NCI-H1944 = system: NCI-H1944
How it was run: as §1

NCI-H1915 = system: NCI-H1915
How it was run: as §1

Cc1sc2c(c1C)C(c1ccc(Cl)cc1)=N[C@@H](CC(=O)OC(C)(C)C)c1nnc(C)n1-2 [JQ1] + O=C(CCCCCCC(=O)Nc1ccccc1)NO [Vorinostat] (partner 1 µM)
relative viability (NCI-H1666; first compound 0.04 µM): 0.972 | relative viability (NCI-H1666; first compound 0.1265 µM): 0.944 | relative viability (NCI-H1666; first compound 0.4 µM): 0.988 | relative viability (NCI-H1666; first compound 1.265 µM): 0.823 | relative viability (NCI-H1666; first compound 4 µM): 0.788 | relative viability (COR-L 105; first compound 0.04 µM): 0.743 | relative viability (COR-L 105; first compound 0.1265 µM): 0.773 | relative viability (COR-L 105; first compound 0.4 µM): 0.621 | relative viability (COR-L 105; first compound 1.265 µM): 0.338 | relative viability (COR-L 105; first compound 4 µM): 0.338 | relative viability (A-427; first compound 0.04 µM): 0.861 | relative viability (A-427; first compound 0.1265 µM): 0.748 | relative viability (A-427; first compound 0.4 µM): 0.789 | relative viability (A-427; first compound 1.265 µM): 0.594 | relative viability (A-427; first compound 4 µM): 0.429 | relative viability (NCI-H358; first compound 0.04 µM): 0.662 | relative viability (NCI-H358; first compound 0.1265 µM): 0.628 | relative viability (NCI-H358; first compound 0.4 µM): 0.533 | relative viability (NCI-H358; first compound 1.265 µM): 0.161 | relative viability (NCI-H358; first compound 4 µM): 0.134 | relative viability (HOP-62; first compound 0.04 µM): 0.641 | relative viability (HOP-62; first compound 0.1265 µM): 0.553 | relative viability (HOP-62; first compound 0.4 µM): 0.305 | relative viability (HOP-62; first compound 1.265 µM): 0.12 | relative viability (HOP-62; first compound 4 µM): 0.0858 | relative viability (NCI-H460; first compound 0.04 µM): 0.672 | relative viability (NCI-H460; first compound 0.1265 µM): 0.621 | relative viability (NCI-H460; first compound 0.4 µM): 0.18 | relative viability (NCI-H460; first compound 1.265 µM): 0.0632 | relative viability (NCI-H460; first compound 4 µM): 0.0462 | relative viability (NCI-H2170; first compound 0.04 µM): 0.866 | relative viability (NCI-H2170; first compound 0.1265 µM): 0.609 | relative viability (NCI-H2170; first compound 0.4 µM): 0.513 | relative viability (NCI-H2170; first compound 1.265 µM): 0.472 | relative viability (NCI-H2170; first compound 4 µM): 0.243 | relative viability (LC-2-ad; first compound 0.04 µM): 0.699 | relative viability (LC-2-ad; first compound 0.1265 µM): 0.396 | relative viability (LC-2-ad; first compound 0.4 µM): 0.624 | relative viability (LC-2-ad; first compound 1.265 µM): 0.273 | relative viability (LC-2-ad; first compound 4 µM): 0.3 | relative viability (HCC-366; first compound 0.04 µM): 0.409 | relative viability (HCC-366; first compound 0.4 µM): 0.138 | relative viability (HCC-366; first compound 1.265 µM): 0.0461 | relative viability (HCC-366; first compound 4 µM): 0.042 | relative viability (SW 900; first compound 0.04 µM): 0.448 | relative viability (SW 900; first compound 0.1265 µM): 0.611 | relative viability (SW 900; first compound 0.4 µM): 0.332 | relative viability (SW 900; first compound 1.265 µM): 0.174 | relative viability (SW 900; first compound 4 µM): 0.157 | relative viability (NCI-H2009; first compound 0.04 µM): 0.701 | relative viability (NCI-H2009; first compound 0.1265 µM): 0.444 | relative viability (NCI-H2009; first compound 0.4 µM): 0.429 | relative viability (NCI-H2009; first compound 1.265 µM): 0.264 | relative viability (NCI-H2009; first compound 4 µM): 0.201 | relative viability (HCC-78; first compound 0.04 µM): 0.436 | relative viability (HCC-78; first compound 0.1265 µM): 0.398 | relative viability (HCC-78; first compound 0.4 µM): 0.466 | relative viability (HCC-78; first compound 1.265 µM): 0.312 | relative viability (HCC-78; first compound 4 µM): 0.329 | relative viability (SK-LU-1; first compound 0.04 µM): 0.797 | relative viability (SK-LU-1; first compound 0.1265 µM): 0.688 | relative viability (SK-LU-1; first compound 0.4 µM): 0.676 | relative viability (SK-LU-1; first compound 1.265 µM): 0.477 | relative viability (SK-LU-1; first compound 4 µM): 0.289 | relative viability (NCI-H2085; first compound 0.04 µM): 0.769 | relative viability (NCI-H2085; first compound 0.1265 µM): 0.601 | relative viability (NCI-H2085; first compound 0.4 µM): 0.639 | relative viability (NCI-H2085; first compound 1.265 µM): 0.474 | relative viability (NCI-H2085; first compound 4 µM): 0.398 | relative viability (UMC-11; first compound 0.04 µM): 0.326 | relative viability (UMC-11; first compound 0.1265 µM): 0.317 | relative viability (UMC-11; first compound 0.4 µM): 0.223 | relative viability (UMC-11; first compound 1.265 µM): 0.141 | relative viability (UMC-11; first compound 4 µM): 0.165 | relative viability (NCI-H1793; first compound 0.04 µM): 0.722 | relative viability (NCI-H1793; first compound 0.1265 µM): 0.853 | relative viability (NCI-H1793; first compound 0.4 µM): 0.664 | relative viability (NCI-H1793; first compound 1.265 µM): 0.548 | relative viability (NCI-H1793; first compound 4 µM): 0.508 | relative viability (EPLC-272H; first compound 0.04 µM): 0.473 | relative viability (EPLC-272H; first compound 0.1265 µM): 0.391 | relative viability (EPLC-272H; first compound 0.4 µM): 0.274 | relative viability (EPLC-272H; first compound 1.265 µM): 0.175 | relative viability (EPLC-272H; first compound 4 µM): 0.206 | relative viability (LU99A; first compound 0.04 µM): 0.61 | relative viability (LU99A; first compound 0.4 µM): 0.363 | relative viability (LU99A; first compound 1.265 µM): 0.278 | relative viability (LU99A; first compound 4 µM): 0.188 | relative viability (LXF-289; first compound 0.04 µM): 0.765 | relative viability (LXF-289; first compound 0.1265 µM): 0.693 | relative viability (LXF-289; first compound 0.4 µM): 0.665 | relative viability (LXF-289; first compound 1.265 µM): 0.582 | relative viability (LXF-289; first compound 4 µM): 0.577 | relative viability (NCI-H1944; first compound 0.04 µM): 0.524 | relative viability (NCI-H1944; first compound 0.1265 µM): 0.405 | relative viability (NCI-H1944; first compound 0.4 µM): 0.325 | relative viability (NCI-H1944; first compound 1.265 µM): 0.323 | relative viability (NCI-H1944; first compound 4 µM): 0.29 | relative viability (NCI-H1915; first compound 0.04 µM): 0.508 | relative viability (NCI-H1915; first compound 0.4 µM): 0.519 | relative viability (NCI-H1915; first compound 1.265 µM): 0.299 | relative viability (NCI-H1915; first compound 4 µM): 0.203
